According to US20100292210A1, “Novel Compounds for A-Beta-Related Pathologies” (AstraZeneca AB, priority 2009, published 2010):

Tested on: Aβ42 release
Test: Aβ42 release from HEK cells stably expressing APPswe, Meso Scale Discovery electrochemiluminescence assay
Type: cell-based
Conditions: Homo sapiens, HEK293; HEK cell line stably expressing APPswe; 4-6 h incubation with test compound; Aβ42 secreted to cell medium; read-out: pIC50 values of Aβ42 release (converted)
Experimental: The level of activity of the compounds on Aβ formation was tested using the following method:
Compounds were diluted in 100% DMSO and stored at […] prior to use. Human Embryonic Kidney (HEK) cell line stably expressing APP with the Swedish mutation (APPswe) were cultured using Dulbecco's Modified Eagles medium (DMEM) supplied with […] glucose, Na-pyruvate and GlutaMAX with 10% FBS, 100 U/ml penicillin-streptomycin (PEST) respectively, 1×non-essential amino acids (NEAA), […], 100 μg/ml Zeocine. Cells at about 80% confluence were washed with PBS, detached from culture flasks using 1×Trypsin/EDTA diluted in PBS, re-suspended in cell media and plated in 384-well poly-d-lysine coated cell culture plates at about 10000-15000 cells/well, in 25 μL cell media. Optionally, cryo-preserved cells (frozen and stored at −140° C. in 90% cell media and 10% DMSO) were thawed, washed and plated as above. Next the cells were incubated for 15-24 h at 37° C. and 5% CO2, after which cell medium was changed. Fresh medium containing test compound diluted ×200 from prepared compound plate was added to the cells before further incubation for 4-6 hours at 37° C. and 5% CO2. After incubation with test compound the amount of Aβ peptides, including Aβ42, Aβ40, Aβ39, Aβ38 and Aβ37, secreted to cell medium was analyzed using the electrochemiluminescence assay technology from Meso Scale Discovery Technology, in combination with specific antibodies raised against the different Aβ peptides. Potential cytotoxic effects of the compounds were usually assayed by measuring the ATP content (ViaLight) from cell lysate.

Row | Structure (SMILES) | IC50 [nM]
1 | Cc1cc(C2CN(CC#N)Cc3ccc(Nc4ccc(-n5ccnc5C)cc4)nc3O2)n(C)n1 (stereo not shown) [Example 27, 2-(2-(1,3-Dimethyl-1H-pyrazol-5-yl)-8-(4-(2-methyl-1H-imidazol-1-yl)phenylamino)-2,3-dihydropyrido[3,2-f][1,4]oxazepin-4(5H)-yl)acetonitrile] | 7940
2 | COc1cc(Nc2ccc3c(n2)OC(c2ccccn2)CN(CC#N)C3)ccc1-n1cnc(C)c1 (stereo not shown) [Example 36, 2-(8-(3-Methoxy-4-(4-methyl-1H-imidazol-1-yl)phenylamino)-2-(pyridin-2-yl)-2,3-dihydropyrido[3,2-f][1,4]oxazepin-4(5H)-yl)acetonitrile] | 158
3 | COc1cc(Nc2ccc3c(n2)OC(c2cccnc2)CN(C)C3)ccc1-n1cnc(C)c1 (stereo not shown) [Example 19, N-(3-methoxy-4-(4-methyl-1H-imidazol-1-yl)phenyl)-4-methyl-2-(pyridin-3-yl)-2,3,4,5-tetrahydropyrido[3,2-f][1,4]oxazepin-8-amine] | 158
4 | COc1cc(Nc2ccc3c(n2)O[C@H](c2ccccc2)CN(C2CC2)C3)ccc1-n1cnc(C)n1 [Example 45, (R)-4-Cyclopropyl-N-(3-methoxy-4-(3-methyl-1H-1,2,4-triazol-1-yl)phenyl)-2-phenyl-2,3,4,5-tetrahydropyrido[3,2-f][1,4]oxazepin-8-amine] | 25.1
5 | COc1cc(Nc2ccc3c(n2)O[C@H](c2ccccc2)CNC3)ccc1-n1cnc(C)c1 [Example 55, (R)—N-(3-Methoxy-4-(4-methyl-1H-imidazol-1-yl)phenyl)-2-phenyl-2,3,4,5-tetrahydropyrido[3,2-f][1,4]oxazepin-8-amine] | 31.6
6 | Cn1cc(-c2ccc(Nc3ccc4c(n3)O[C@H](c3ccccc3)CNC4)nc2)cn1 [Example 57, (R)—N-(5-(1-Methyl-1H-pyrazol-4-yl)pyridin-2-yl)-2-phenyl-2,3,4,5-tetrahydropyrido[3,2-f][1,4]oxazepin-8-amine] | 126
7 | CN1Cc2ccc(Nc3ccc(-n4ccnc4CO)cc3)nc2O[C@H](c2ccccc2)C1 [Example 60, (R)-(1-(4-(4-Methyl-2-phenyl-2,3,4,5-tetrahydropyrido[3,2-f][1,4]oxazepin-8-ylamino)phenyl)-1H-imidazol-2-yl)methanol] | 31.6
8 | COc1nc(Nc2ccc3c(n2)O[C@H](c2ccccc2)CN(C)C3)ccc1-c1cnn(C)c1 [Example 50, (R)—N-(6-Methoxy-5-(1-methyl-1H-pyrazol-4-yl)pyridin-2-yl)-4-methyl-2-phenyl-2,3,4,5-tetrahydropyrido[3,2-f][1,4]oxazepin-8-amine] | 7.94
9 | Cc1cccc(C2CN(C)Cc3ccc(Nc4ccc(-c5cnn(C)c5)nc4)nc3O2)n1 (stereo not shown) [Example 54, 4-Methyl-N-(6-(1-methyl-1H-pyrazol-4-yl)pyridin-3-yl)-2-(6-methylpyridin-2-yl)-2,3,4,5-tetrahydropyrido[3,2-f][1,4]oxazepin-8-amine] | > 3160
10 | Cc1cncn1-c1ccc(Nc2ccc3c(n2)O[C@H](c2ccccc2)CN(CCO)C3)cc1 [Example 30, (R)-2-(8-(4-(5-methyl-1H-imidazol-1-yl)phenylamino)-2-phenyl-2,3-dihydropyrido[3,2-f][1,4]oxazepin-4(5H)-yl)ethanol] | 631
11 | COc1cc(Nc2ccc3c(n2)O[C@H](c2ccccc2)CN(C(=O)N(C)C)C3)ccc1-n1cnc(C)c1 [Example 40, (R)-8-(3-Methoxy-4-(4-methyl-1H-imidazol-1-yl)phenylamino)-N,N-dimethyl-2-phenyl-2,3-dihydropyrido[3,2-f][1,4]oxazepine-4(5H)-carboxamide] | 50.1
12 | COc1cc(Nc2ccc3c(n2)O[C@H](c2ccccc2)CN(C)C3)ccc1-n1cnc(C)n1 [Example 44, (R)—N-(3-Methoxy-4-(3-methyl-1H-1,2,4-triazol-1-yl)phenyl)-4-methyl-2-phenyl-2,3,4,5-tetrahydropyrido[3,2-f][1,4]oxazepin-8-amine] | 31.6
13 | COc1cc(Nc2ccc3c(n2)OC(c2ccccc2)CN(CCO)C3)ccc1-n1cnc(C)c1 (stereo not shown) [Example 46, 2-(8-(3-Methoxy-4-(4-methyl-1H-imidazol-1-yl)phenylamino)-2-phenyl-2,3-dihydropyrido[3,2-f][1,4]oxazepin-4(5H)-yl)ethanol] | 25.1
14 | COc1cc(Nc2ccc3c(n2)OC(c2ccccn2)CN(C)C3)ccc1-n1cnc(C)c1 (stereo not shown) [Example 37, N-(3-Methoxy-4-(4-methyl-1H-imidazol-1-yl)phenyl)-4-methyl-2-(pyridin-2-yl)-2,3,4,5-tetrahydropyrido[3,2-f][1,4]oxazepin-8-amine] | 126
15 | COc1cc(Nc2ccc3c(n2)OC(COC(C)C)CN(C(C)=O)C3)ccc1-n1cnc(C)c1 (stereo not shown) [Example 31, 1-(2-(Isopropoxymethyl)-8-(3-methoxy-4-(4-methyl-1H-imidazol-1-yl)phenylamino)-2,3-dihydropyrido[3,2-f][1,4]oxazepin-4(5H)-yl)ethanone] | 631
16 | COc1cc(Nc2ccc3c(n2)OC(c2ccccc2)CN(C)C3=O)ccc1-n1cnc(C)c1 (stereo not shown) [Example 4, 8-(3-methoxy-4-(4-methyl-1H-imidazol-1-yl)phenylamino)-4-methyl-2-phenyl-3,4-dihydropyrido[3,2-f][1,4]oxazepin-5(2H)-one] | 200
17 | COc1cc(Nc2ccc3c(n2)OC(C2CC2)CN(C)C3)ccc1-n1cnc(C)c1 (stereo not shown) [Example 49, 2-Cyclopropyl-N-(3-methoxy-4-(4-methyl-1H-imidazol-1-yl)phenyl)-4-methyl-2,3,4,5-tetrahydropyrido[3,2-f][1,4]oxazepin-8-amine] | 100
18 | Cc1ncn(-c2ccc(Nc3ccc4c(n3)O[C@H](c3ccccc3)CN(C)C4)cc2)n1 [Example 48, (R)-4-Methyl-N-(4-(3-methyl-1H-1,2,4-triazol-1-yl)phenyl)-2-phenyl-2,3,4,5-tetrahydropyrido[3,2-f][1,4]oxazepin-8-amine] | 100
19 | COc1cc(Nc2ncc3c(n2)O[C@H](c2ccccc2)CN(C)C3)ccc1-n1cnc(C)c1 [Example 13, (R)—N-(3-methoxy-4-(4-methyl-1H-imidazol-1-yl)phenyl)-6-methyl-8-phenyl-5,6,7,8-tetrahydropyrimido[5,4-f][1,4]oxazepin-2-amine] | 20
20 | COc1cc(Nc2ccc3c(n2)OC(c2cccc(C)n2)CN(C)C3)ccc1-n1cnc(C)n1 (stereo not shown) [Example 52, N-(3-Methoxy-4-(3-methyl-1H-1,2,4-triazol-1-yl)phenyl)-4-methyl-2-(6-methylpyridin-2-yl)-2,3,4,5-tetrahydropyrido[3,2-f][1,4]oxazepin-8-amine] | 398
21 | Cc1nccn1-c1ccc(Nc2ccc3c(n2)OC(c2ccccc2)CN(C)C3)cn1 (stereo not shown) [Example 23, 4-methyl-N-(6-(2-methyl-1H-imidazol-1-yl)pyridin-3-yl)-2-phenyl-2,3,4,5-tetrahydropyrido[3,2-f][1,4]oxazepin-8-amine] | 501
22 | COc1nc(Nc2ccc3c(n2)OC(c2cccc(C)n2)CN(C)C3)ccc1-c1cnn(C)c1 (stereo not shown) [Example 53, N-(6-Methoxy-5-(1-methyl-1H-pyrazol-4-yl)pyridin-2-yl)-4-methyl-2-(6-methylpyridin-2-yl)-2,3,4,5-tetrahydropyrido[3,2-f][1,4]oxazepin-8-amine] | 50.1
23 | CN1CC(c2ccccc2)Oc2nc(Oc3ccc(-n4ccnc4)cc3)ncc2C1=O (stereo not shown) [Example 28, 2-(4-(1H-Imidazol-1-yl)phenoxy)-6-methyl-8-phenyl-7,8-dihydropyrimido[5,4-f][1,4]oxazepin-5(6H)-one] | 6310
24 | Cc1nccn1-c1ccc(Nc2ccc3c(n2)OC(c2ccccc2)CN(C)C3=O)cn1 (stereo not shown) [Example 6, 4-methyl-8-(6-(2-methyl-1H-imidazol-1-yl)pyridin-3-ylamino)-2-phenyl-3,4-dihydropyrido[3,2-f][1,4]oxazepin-5(2H)-one] | 6310
25 | CN1CC(c2ccccc2)Oc2nc(Nc3ccc(-c4cnco4)cc3)ccc2C1=O (stereo not shown) [Example 3, 4-methyl-8-(4-(1,3-oxazol-5-yl)phenylamino)-2-phenyl-3,4-dihydropyrido[3,2-f][1,4]oxazepin-5(2H)-one] | 398
26 | COc1cc(Nc2ccc3c(n2)OC(c2ccccc2)CN(CCF)C3)ccc1-n1cnc(C)c1 (stereo not shown) [Example 15, 4-(2-fluoroethyl)-N-(3-methoxy-4-(4-methyl-1H-imidazol-1-yl)phenyl)-2-phenyl-2,3,4,5-tetrahydropyrido[3,2-f][1,4]oxazepin-8-amine] | 31.6
27 | CN1Cc2ccc(Nc3ccc(-c4cnn(C)c4)cc3)nc2O[C@H](c2ccccc2)C1 [Example 59, (R)-4-Methyl-N-(4-(1-methyl-1H-pyrazol-4-yl)phenyl)-2-phenyl-2,3,4,5-tetrahydropyrido[3,2-f][1,4]oxazepin-8-amine] | 79.4
28 | COc1cc(Nc2ccc3c(n2)O[C@H](c2ccccc2)CN(CCO)C3)ccc1-n1cncc1C [Example 34, (R)-2-(8-(3-Methoxy-4-(5-methyl-1H-imidazol-1-yl)phenylamino)-2-phenyl-2,3-dihydropyrido[3,2-f][1,4]oxazepin-4(5H)-yl)ethanol] | 251
